Key:
full-length Xenopus IRBP [1] = biological target: T1, full-length Xenopus IRBP (Xenopus laevis, UniProt Q7SZI7); test: Fluorometric titration (ligand fluorescence enhancement, protein quenching, energy transfer); type: binding
T1 construct: We expressed the full-length IRBP as well as its individual modules as thioredoxin-fusion proteins using pTrxFus and pThioHis vectors; made in house; host or cells: E. coli Top10 (pThioHis)
From the text: The binding parameters of retinoid-binding proteins including IRBP may be determined by fluorescence spectroscopy. The method utilizes changes in quantum yield occurring during ligand binding. Such changes are represented by enhancement of ligand fluorescence, quenching of intrinsic protein fluorescence, and transfer of energy from protein to bound ligand. Fluorescence enhancement occurs if the quantum yield of the ligand's fluorescence is higher in the hydrophobic environment of the ligand-binding domain compared to that outside of the domain.
[…] We previously derived an equation that is generally useful for describing such quantum yield changes that are consequent upon ligand binding. This equation has been previously applied to the analysis of binding by monitoring the enhancement of retinol fluorescence. In this case, […], the fluorescence enhancement (Fenh) depends on the total retinol concentration (Rt), the dissociation constant (Kd ^all-trans), the number of retinol-binding sites per protein molecule (N) and the total protein concentration (Pt).
Assuming that there is a single type of noninteracting site on the protein, (Fenh) is expected to be linearly related to the concentration of bound retinol molecules. Fenh is given by the relation
Fenh=C1+C2[Rtall−trans−(Rtall−trans+NPt+Kdall−trans)^2−4NPtRtall−trans] MathType@MTEF@5@5@+=feaafiart1ev1aaatCvAUfKttLearuWrP9MDH5MBPbIqV92AaeXatLxBI9gBaebbnrfifHhDYfgasaacH8akY=wiFfYdH8Gipec8Eeeu0xXdbba9frFj0=OqFfea0dXdd9vqai=hGuQ8kuc9pgc9s8qqaq=dirpe0xb9q8qiLsFr0=vr0=vr0dc8meaabaqaciaacaGaaeqabaqabeGadaaakeaacqWGgbGrdaWgaaWcbaGaemyzauMaemOBa4MaemiAaGgabeaakiabg2da9iabdoeadnaaBaaaleaacqaIXaqmaeqaaOGaey4kaSIaem4qam0aaSbaaSqaaiabikdaYaqabaGcdaWadaqaaiabdkfasnaaDaaaleaacqWG0baDaeaacqWGHbqycqWGSbaBcqWGSbaBcqGHsislcqWG0baDcqWGYbGCcqWGHbqycqWGUbGBcqWGZbWCaaGccqGHsisldaGcaaqaamaabmaabaGaemOuai1aa0baaSqaaiabdsha0bqaaiabdggaHjabdYgaSjabdYgaSjabgkHiTiabdsha0jabdkhaYjabdggaHjabd6gaUjabdohaZbaakiabgUcaRiabd6eaojabdcfaqnaaBaaaleaacqWG0baDaeqaaOGaey4kaSIaem4saS0aa0baaSqaaiabdsgaKbqaaiabdggaHjabdYgaSjabdYgaSjabgkHiTiabdsha0jabdkhaYjabdggaHjabd6gaUjabdohaZbaaaOGaayjkaiaawMcaamaaCaaaleqabaGaeGOmaidaaOGaeyOeI0IaeGinaqJaemOta4Kaemiuaa1aaSbaaSqaaiabdsha0bqabaGccqWGsbGudaqhaaWcbaGaemiDaqhabaGaemyyaeMaemiBaWMaemiBaWMaeyOeI0IaemiDaqNaemOCaiNaemyyaeMaemOBa4Maem4CamhaaaqabaaakiaawUfacaGLDbaaaaa@8490@
The equation was fit to the data by nonlinear least-squares analysis. […] For the quenching studies the inner filter effect was accounted for by graphical correction as previously described. Fluorescence measurements were made using an SLM 8000TM C photon counting spectrofluorometer corrected for wavelength dependence of source energy and detector response.

full-length Xenopus IRBP [2] = biological target: T1, full-length Xenopus IRBP; test: Competitive fluorescence titration of all-trans retinol with 11-cis retinaldehyde; type: binding
From the text: In Figure 8B, full-length Xenopus IRBP was titrated with all-trans retinol in the presence of different fixed concentrations of 11-cis retinaldehyde. Binding of all-trans retinol to Xenopus IRBP was followed by monitoring the enhancement of its fluorescence. […] Equation 3 (see methods) was used to analyze the data generating the 3-dimensional representation of the fit shown graphically in Figure 8B.
To describe the displacement of all-trans retinol by 11-cis retinaldehyde, Equation 1 was modified to take into account the competition between the two ligands. The apparent dissociation constants for all-trans retinol measured under these conditions is related to the dissociation constant of 11-cis retinaldehyde through the following expression.
Kapp=Kdall−trans[1+Rt11−cis/Kd11−cis] MathType@MTEF@5@5@+=feaafiart1ev1aaatCvAUfKttLearuWrP9MDH5MBPbIqV92AaeXatLxBI9gBaebbnrfifHhDYfgasaacH8akY=wiFfYdH8Gipec8Eeeu0xXdbba9frFj0=OqFfea0dXdd9vqai=hGuQ8kuc9pgc9s8qqaq=dirpe0xb9q8qiLsFr0=vr0=vr0dc8meaabaqaciaacaGaaeqabaqabeGadaaakeaacqWGlbWsdaWgaaWcbaGaemyyaeMaemiCaaNaemiCaahabeaakiabg2da9iabdUealnaaDaaaleaacqWGKbazaeaacqWGHbqycqWGSbaBcqWGSbaBcqGHsislcqWG0baDcqWGYbGCcqWGHbqycqWGUbGBcqWGZbWCaaGcdaWadaqaaiabigdaXiabgUcaRmaalaaabaGaemOuai1aa0baaSqaaiabdsha0bqaaiabigdaXiabigdaXiabgkHiTiabdogaJjabdMgaPjabdohaZbaaaOqaaiabdUealnaaDaaaleaacqWGKbazaeaacqaIXaqmcqaIXaqmcqGHsislcqWGJbWycqWGPbqAcqWGZbWCaaaaaaGccaGLBbGaayzxaaaaaa@58DE@
The origin of the above expression is discussed in reviews dealing with competition assays. Substitution of equation 2 into equation 1 yields the following expression.
Fenh=C1+C2[Rtall−trans−(Rtall−trans+NPt+Kdall−trans+Kdall−transRt11−cis/Kd11−cis)^2−4NPtRtall−trans] […]

T1 sequence (Q7SZI7 23-1219): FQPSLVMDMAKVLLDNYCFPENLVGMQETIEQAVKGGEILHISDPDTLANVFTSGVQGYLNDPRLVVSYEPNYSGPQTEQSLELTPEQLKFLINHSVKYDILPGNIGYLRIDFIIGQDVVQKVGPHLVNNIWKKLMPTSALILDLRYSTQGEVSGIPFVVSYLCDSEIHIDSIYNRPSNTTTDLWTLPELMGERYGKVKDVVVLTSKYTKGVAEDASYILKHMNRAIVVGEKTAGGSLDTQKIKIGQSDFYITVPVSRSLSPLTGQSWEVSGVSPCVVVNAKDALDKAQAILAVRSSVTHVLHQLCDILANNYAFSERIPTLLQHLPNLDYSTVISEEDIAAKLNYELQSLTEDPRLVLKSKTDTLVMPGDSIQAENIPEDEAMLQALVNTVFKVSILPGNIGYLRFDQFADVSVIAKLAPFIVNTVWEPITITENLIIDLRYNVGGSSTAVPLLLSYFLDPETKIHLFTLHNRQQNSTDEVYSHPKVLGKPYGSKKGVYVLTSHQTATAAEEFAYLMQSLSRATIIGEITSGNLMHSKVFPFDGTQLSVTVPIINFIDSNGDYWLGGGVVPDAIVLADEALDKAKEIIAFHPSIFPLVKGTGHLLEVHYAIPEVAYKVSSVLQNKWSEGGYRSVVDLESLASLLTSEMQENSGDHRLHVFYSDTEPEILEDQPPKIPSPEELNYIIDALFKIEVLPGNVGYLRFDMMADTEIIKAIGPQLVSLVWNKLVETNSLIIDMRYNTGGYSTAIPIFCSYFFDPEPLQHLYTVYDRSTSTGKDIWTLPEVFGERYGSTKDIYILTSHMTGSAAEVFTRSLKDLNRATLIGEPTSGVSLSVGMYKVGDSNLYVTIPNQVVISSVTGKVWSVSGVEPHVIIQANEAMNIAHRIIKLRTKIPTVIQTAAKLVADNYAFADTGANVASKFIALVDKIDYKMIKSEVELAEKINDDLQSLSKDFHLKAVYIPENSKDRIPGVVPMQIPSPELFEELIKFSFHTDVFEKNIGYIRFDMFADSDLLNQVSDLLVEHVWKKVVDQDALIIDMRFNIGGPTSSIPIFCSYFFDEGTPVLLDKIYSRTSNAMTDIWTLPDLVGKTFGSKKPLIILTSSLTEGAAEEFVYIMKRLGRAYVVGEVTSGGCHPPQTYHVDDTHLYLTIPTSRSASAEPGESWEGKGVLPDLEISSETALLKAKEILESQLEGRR

SMILES	Binding sites (N), Quenching (full-length Xenopus IRBP [1]; quenching of protein fluorescence by 11-cis retinaldehyde, ex 280 nm, em 340 nm)	Kd (full-length Xenopus IRBP [1]; quenching of protein fluorescence by 11-cis retinaldehyde, ex 280 nm, em 340 nm, read-out: Kd 11-cis, Quenching)	Kd (full-length Xenopus IRBP [2]; competition with all-trans retinol, read-out: Kd 11-cis retinal)	Binding sites (N) (full-length Xenopus IRBP [2]; competition, sites assumed shared by all-trans retinol and 11-cis retinal)	Binding sites (N), Enhancement (full-length Xenopus IRBP [1]; all-trans retinol fluorescence enhancement, ex 330 nm, em 480 nm, IRBP 0.65 μM)	Kd (full-length Xenopus IRBP [1]; all-trans retinol fluorescence enhancement, ex 330 nm, em 480 nm, IRBP 0.65 μM, read-out: Kd, Enhancement)	Binding sites (N), energy transfer (full-length Xenopus IRBP [1]; all-trans retinol, energy transfer, ex 280 nm, em 480 nm)	Kd (full-length Xenopus IRBP [1]; all-trans retinol, energy transfer, ex 280 nm, em 480 nm, read-out: Kd, energy transfer)	Binding sites (N), Quenching (full-length Xenopus IRBP [1]; quenching of protein fluorescence by all-trans retinol, ex 280 nm, em 340 nm)	Kd (full-length Xenopus IRBP [1]; quenching of protein fluorescence by all-trans retinol, ex 280 nm, em 340 nm, read-out: Kd, Quenching)	Kd (full-length Xenopus IRBP [1]; summary statement of the abstract, read-out: Kd (summary))	Kd (full-length Xenopus IRBP [2]; competition, in presence of fixed concentrations of 11-cis retinaldehyde, read-out: Kd All-trans retinol)
CC1=C(/C=C/C(C)=C/C=C/C(C)=C/C=O)C(C)(C)CCC1 [11-cis retinal]	1.81 ± 0.15	280 ± 50 nM	210 ± 100 nM	3.53 ± 0.19	–	–	–	–	–	–	–	–
CC1=C(/C=C/C(C)=C/C=C/C(C)=C/CO)C(C)(C)CCC1 [all-trans retinol]	–	–	–	–	3.19 ± 0.10	300 ± 50 nM	3.72 ± 0.20	290 ± 120 nM	1.93 ± 0.41	660 ± 140 nM	200 to 300 nM	220 ± 130 nM

Source: article PMC2000878, “Module structure of interphotoreceptor retinoid-binding protein (IRBP) may provide bases for its complex role in the visual cycle – structure/function study of Xenopus IRBP” (BMC Biochemistry, 2007)
